{"source": "patent US7714106B2", "about": "“Neuropeptides and their use for pest control” (University of Florida Research Foundation, Inc., priority 1999, dated 2010)", "note": "No end group written: not given here.", "data": [{"tested_on": "trypsin biosynthesis in the midgut of female Aedes aegypti", "assay": "Trypsin biosynthesis in blood-fed female mosquitoes injected with peptide (whole mosquitos)", "type": "in vivo", "settings": "whole blood-fed females, injected 0.25 μl, 10^−6 M peptide, midguts assayed 30 hours later", "text": "To find out if NPF I and II affect trypsin biosynthesis in the midgut of female Aedes aegypti, […] were removed and assayed for trypsin biosynthesis (Borovsky el al., 1990 “Mosquito Oostatic Factor: A Novel Decapeptide Modulating Trypsin-Like Enzyme Biosynthesis in the Midgut” FASEB J. 4:3015-3020; Borovsky et al. 1993 “Mass Spectrometry and Characterization of Aedes aegypti Trypsin Modulating Oostatic Factor (TMOF) and its Analog” Insect Biochem. Molec. Biol. 23:703-712). Each experiment was repeated 3 times (5 females per group) and the results are expressed as % inhibition of trypsin biosynthesis±S.E.M. (FIG. 1).", "units": {"% inhibition of trypsin biosynthesis": "%"}, "values": [{"substance": "Ala-Pro-Ser-Leu-Arg-Leu-Arg-Phe-amide (APSLRLRF-NH2) [NPF II, amidated neuropeptide NPF II, native to the Colorado potato beetle]", "% inhibition of trypsin biosynthesis": 35}]}, {"tested_on": "first instar Aedes aegypti larvae", "assay": "Effect of NPF polypeptides on Aedes aegypti larvae (ingestion, mortality)", "type": "in vivo", "settings": "microtiter plate, peptide 2 mg/ml to 0.04 mg/ml with Brewer's yeast, mortality at 24 hour intervals for 3 to 7 days, read-out: LC50 (mM) ± SEM", "text": "NPF polypeptides sharing sequence homology with NPF I and NPF II of the Colorado potato beetle (Leptinotarsa decemlineata) (Spittaels, et al. Insect Biochem. Mol. Biol., 26 (4):375-382, 1996) have been identified in the American cockroach (Periplaneta americana) (Veenstra and Lambrou, Biochem. Biophys. Res. Commun., 213 (2):519-524, 1995), mosquito (Aedes aegypti) (Stanek et al., Display Presentation, Entomological Society of America Annual Meeting, Montreal, Canada, Dec. 3-6, 2000), and fruit fly (Drosophila melanogaster), and their pesticidal activity was confirmed. Synthesized polypeptides corresponding to the native polypeptides of Colorado potato beetle (SEQ ID NO. 1), mosquito (SEQ ID NOs. 5 and 7), American cockroach (SEQ ID NOs. 9 and 11), and fruit fly (SEQ ID NOs. 13 and 15) were provided to first instar Aedes aegypti larvae for ingestion. Non-amidated versions of SEQ ID NOs. 5, 7, 9, 11, 13, and 15 (SEQ ID NOs. 6, 8, 10, 12, 14, and 16, respectively), as well as other functional equivalents (SEQ ID NOs. 17-24), were also provided for ingestion.\nFirst instar Aedes aegypti larvae were assayed in a microtiter plate in 188 μl solution containing 160 μl of water, 10 μl of 2% Brewer's yeast, and NPF polypeptides of the subject invention at concentrations of 2 mg/ml to 0.04 mg/ml (Table 2). Mortality was determined at 24 hour intervals for 3 to 7 days. Controls were run with yeast solution lacking the NPF polypeptide.", "units": {"LC50": "mM"}, "values": [{"substance": "ARGPQLRLRF-NH2 [SEQ ID NO. 1, Ala-Arg-Gly-Pro-Gln-Leu-Arg-Leu-Arg-Phe-amide]", "LC50": "0.65 ± 0.04"}, {"substance": "PSLRLRF-NH2 [SEQ ID NO. 19, Pro-Ser-Leu-Arg-Leu-Arg-Phe-amide]", "LC50": "> 2.25"}, {"substance": "RPPTRFRF-NH2 [SEQ ID NO. 5, Arg-Pro-Pro-Thr-Arg-Phe-Arg-Phe-amide]", "LC50": "0.61 ± 0.018"}, {"substance": "ADRSPSLRLRF-NH2 [SEQ ID NO. 11, Ala-Asp-Arg-Ser-Pro-Ser-Leu-Arg-Leu-Arg-Phe-amide]", "LC50": "0.65 ± 0.03"}, {"substance": "RSPSLRLRF-NH2 [SEQ ID NO. 17, Arg-Ser-Pro-Ser-Leu-Arg-Leu-Arg-Phe-amide]", "LC50": "0.82 ± 0.07"}, {"substance": "LRLRF-NH2 [SEQ ID NO. 21, Leu-Arg-Leu-Arg-Phe-amide]", "LC50": "> 2.8"}, {"substance": "PIRSPSLRLRF-NH2 [SEQ ID NO. 13, Pro-Ile-Arg-Ser-Pro-Ser-Leu-Arg-Leu-Arg-Phe-amide]", "LC50": "0.589 ± 0.04"}, {"substance": "AQRSPSLRLRF-NH2 [SEQ ID NO. 15, Ala-Gln-Arg-Ser-Pro-Ser-Leu-Arg-Leu-Arg-Phe-amide]", "LC50": "1.03 ± 0.1"}, {"substance": "ANRSPSLRLRF-NH2 [SEQ ID NO. 9, Ala-Asn-Arg-Ser-Pro-Ser-Leu-Arg-Leu-Arg-Phe-amide]", "LC50": "0.135 ± 0.06"}, {"substance": "APQLRLRF-NH2 [SEQ ID NO. 7, Ala-Pro-Gln-Leu-Arg-Leu-Arg-Phe-amide]", "LC50": "0.8 ± 0.06"}]}]}
